Assay results: patent US11149035B2, “Chemical compounds as H—PGDS inhibitors” (GlaxoSmithKline Intellectual Property Development Limited, priority 2017, dated 2021)

Experiments:
[1] = target: T1, haematopoietic prostaglandin D synthase (H-PGDS) (Homo sapiens, UniProt O60760); assay: H-PGDS RapidFire high throughput mass spectrometry assay (conversion of PGH2 to PGD2); format: biochemical; details: 10 nM H-PGDS, PGH2 formed in situ by COX-2 from arachidonic acid; four parameter curve fit; read-out: Potency Range (mean pIC50) (converted)
T1 construct: Full length human H-PGDS cDNA (Invitrogen Ultimate ORF IOH13026) was amplified by PCR; 6-His (N); TEV protease cleavage site (N); made in house; host or cells: E. coli BL21 (DE3*)
T1 sequence (O60760 whole entry): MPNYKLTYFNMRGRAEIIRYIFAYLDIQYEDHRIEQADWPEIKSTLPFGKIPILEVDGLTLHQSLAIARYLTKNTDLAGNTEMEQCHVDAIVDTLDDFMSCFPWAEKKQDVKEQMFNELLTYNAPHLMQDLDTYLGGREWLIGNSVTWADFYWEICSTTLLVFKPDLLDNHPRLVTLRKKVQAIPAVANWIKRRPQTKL
Outline: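 His-tagged full-length human H-PGDS from E. coli converts PGH2, generated in situ at ~10 μM from arachidonic acid by FLAG-tagged human COX-2 from Sf9 cells. RapidFire SPE-triple quadrupole MS measures PGD2 against PGF2α as substrate surrogate; percent conversion is calculated.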

[2] = tested on: limb muscle injury in male C57Bl/6N mice; assay: In vivo assay for functional response to muscle injury (eccentric contraction-induced muscle fatigue); design: species or system mouse; details: FIG. 1
Excerpt: Under anesthesia, the right hind limb of a mouse is restrained at the knee and the foot attached to a motorized footplate/force transducer. Needle electrodes are inserted into the upper limb, either side of the sciatic nerve and a current sufficient to elicit a maximal muscle contraction is applied. Muscle tension is produced by moving the footplate to lengthen the plantarflexor muscles while the limb is under maximal stimulation. This is repeated 60 times to fatigue the muscles of the lower limb. Anesthesia, limb immobilization and limb stimulation are then repeated at regular intervals to measure maximal isometric force in the recovering limb. 7 to 9 animals are tested for each test condition.

SMILES: CC(C)(O)[C@H]1CC[C@H](NC(=O)c2cnc3nc(C4CC4)ccc3c2)CC1 [Example 21, 7-Cyclopropyl-N-((trans)-4-(2-hydroxypropan-2-yl)cyclohexyl)-1,8-naphthyridine-3-carboxamide]
- IC50 [1]: < 10 nM
- kinetics of recovery of maximal isometric force after injury ([2]; PO 3 and 10 mg/kg QD beginning 10 min prior to eccentric contraction challenge): acceleration in the kinetics of recovery
- initial magnitude of the injury (isometric limb force 24 hours following protocol initiation) ([2]; PO 3 and 10 mg/kg QD, 24 hours): reduced the initial magnitude of the injury
